Biological target: T1, TK2117 (with TK2118 / UblB) (Thermococcus kodakarensis, UniProt Q5JEX2)
T1 construct: tag removal not mentioned; with Ubiquitin-like sulfur-carrier protein UblB (MoaD family)
T1 sequence (Q5JEX2 1-232): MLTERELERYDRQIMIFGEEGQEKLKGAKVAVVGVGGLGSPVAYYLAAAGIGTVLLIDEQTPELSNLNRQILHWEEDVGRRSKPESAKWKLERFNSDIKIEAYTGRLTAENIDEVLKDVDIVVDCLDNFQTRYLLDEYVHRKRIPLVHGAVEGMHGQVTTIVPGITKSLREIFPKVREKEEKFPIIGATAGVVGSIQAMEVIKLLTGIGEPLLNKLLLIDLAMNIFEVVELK
T1 sequence (Q5JEX1 1-88 partner): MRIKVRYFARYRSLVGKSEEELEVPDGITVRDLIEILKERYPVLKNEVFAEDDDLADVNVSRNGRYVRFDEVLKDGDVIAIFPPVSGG
Assay: pyrophosphate release measured as phosphate (Biomol Green, inorganic pyrophosphatase)
Assay type: biochemical
Details: 10 mM ATP; 5 mM MgCl2; 4.0 µM TK2117; 10.0 µM TK2118 as co-substrate; pH 8.0; 80 °C

Nc1ncnc2c1ncn2[C@@H]1O[C@H](COP(=O)(O)OP(=O)(O)OP(=O)(O)O)[C@@H](O)[C@H]1O [ATP]
pyrophosphate release measured as phosphate (Biomol Green, inorganic pyrophospha): TK2117 formed pyrophosphate in the presence of TK2118

Source: article PMC11323500, “Functional redundancy of ubiquitin-like sulfur-carrier proteins facilitates flexible, efficient sulfur utilization in the primordial archaeon Thermococcus kodakarensis” (mBio, 2024)
